Measurements from patent US20230312578A1, “6H-INDOLO[2,3-B]QUINOXALINE DERIVATIVES USEFUL IN THERAPY” (Vironova Medical AB, priority 2020, published 2023).

Assays:
Assay type in all cases: cell-based
[1] = Human tumor cell line growth assay (SRB); details: human, SF-295 cells (CNS), SF-295, 48 h, read-out: LC50
SF-295 = experiment: Human tumor cell line growth assay (SRB); details: Homo sapiens; CNS, SF-295, 48 h
[2] = Human tumor cell line growth assay (SRB); details: human, SK-MEL-5 cells (melanoma), SK-MEL-5, 48 h
SK-MEL-5 = experiment: Human tumor cell line growth assay (SRB); details: Homo sapiens; Melanoma, SK-MEL-5, 48 h
[3] = Human tumor cell line growth assay (SRB); details: human, SNB-75 cells (CNS), SNB-75, 48 h
SNB-75 = experiment: Human tumor cell line growth assay (SRB); details: Homo sapiens; CNS, SNB-75, 48 h
HL-60(TB) = experiment: Human tumor cell line growth assay (SRB); details: Leukemia, 48 h; for CC50: read-out: LC50 (the source's name)
[4] = Human tumor cell line growth assay (SRB); details: human, RPMI-8226 cells (leukemia), RPMI-8226, 48 h, read-out: LC50
[5] = Human tumor cell line growth assay (SRB); details: human, NCI-H23 cells (NSCLC), NCI-H23, 48 h, read-out: LC50
NCI-H23 = experiment: Human tumor cell line growth assay (SRB); details: Homo sapiens; NSCLC, NCI-H23, 48 h
RXF 393 = experiment: Human tumor cell line growth assay (SRB); details: Renal, RXF 393, 48 h; for CC50: read-out: LC50 (the source's name)
[6] = Human tumor cell line growth assay (SRB), summary over the panel; details: human, human tumor cell line panel (most cell lines of the panel); for most cell lines of the panel; read-out: LC50
[7] = Human tumor cell line growth assay (SRB); details: human, U251 cells (CNS), U251, 48 h, read-out: LC50
U251 = experiment: Human tumor cell line growth assay (SRB); details: Homo sapiens, U-251; CNS, U251, 48 h
[8] = Human tumor cell line growth assay (SRB); details: human, M14 cells (melanoma), M14, 48 h, read-out: LC50
M14 = experiment: Human tumor cell line growth assay (SRB); details: Homo sapiens; Melanoma, M14, 48 h
UO-31 = experiment: Human tumor cell line growth assay (SRB); details: Renal, UO-31, 48 h; for CC50: read-out: LC50 (the source's name)
[9] = Human tumor cell line growth assay (SRB); details: human, NCI-H522 cells (NSCLC), NCI-H522, 48 h
NCI-H522 = experiment: Human tumor cell line growth assay (SRB); details: Homo sapiens; NSCLC, NCI-H522, 48 h
[10] = Human tumor cell line growth assay (SRB); details: human, HCT-15 cells (colon), HCT-15, 48 h
HCT-15 = experiment: Human tumor cell line growth assay (SRB); details: Homo sapiens; Colon, HCT-15, 48 h
A498 = experiment: Human tumor cell line growth assay (SRB); details: Renal, A498, 48 h; for CC50: read-out: LC50 (the source's name)
[11] = Human tumor cell line growth assay (SRB); details: human, COLO 205 cells (colon), COLO 205, 48 h, read-out: LC50
COLO 205 = experiment: Human tumor cell line growth assay (SRB); details: Homo sapiens; Colon, COLO 205, 48 h
LOX IMVI = experiment: Human tumor cell line growth assay (SRB); details: Homo sapiens, Melanoma, 48 h
[12] = Human tumor cell line growth assay (SRB); details: human, LOX IMVI cells (melanoma), read-out: LC50

| SMILES | CC50 at 48 h [1] [µM] | GI50 (SF-295) [µM] | LC50 (concentration killing 50% of tumour cells) at 48 h [2] [µM] | GI50 (SK-MEL-5) [µM] | LC50 (concentration killing 50% of cells) at 48 h [3] [µM] | GI50 (SNB-75) [µM] | GI50 (HL-60(TB)) [µM] | GI50 (NCI-H23) [µM] | GI50 (RXF 393) [µM] | CC50 (RXF 393) [µM] | GI50 (U251) [µM] | CC50 at 48 h [8] [µM] | GI50 (M14) [µM] | GI50 (UO-31) [µM] | CC50 (UO-31) [µM] | LC50 at 48 h [9] [µM] | GI50 (NCI-H522) [µM] | LC50 (concentration killing 50% of cells) at 48 h [10] [µM] | GI50 (HCT-15) [µM] | GI50 (A498) [µM] | further results |
| --- | --- | --- | --- | --- | --- | --- | --- | --- | --- | --- | --- | --- | --- | --- | --- | --- | --- | --- | --- | --- | --- |
| Cc1cc2nc3c4cc([N+](=O)[O-])ccc4n(CCN(C)C)c3nc2cc1C [JBA-185, 2-(2,3-dimethyl-9-nitro-6H-indolo[2,3-b]quinoxalin-6-yl)-N,N-dimethylethanamine] | 8.64 | 0.388 | 4.77 | 1.04 | 5.45 | 0.447 | 0.914 | 0.492 | 0.638 | 5.5 | 0.47 | 7.28 | 0.499 | 0.187 | 21.2 | > 100 | 0.595 | > 100 | 0.349 | 1.26 | CC50 (HL-60(TB)): > 100 µM; CC50 at 48 h [4]: > 100 µM; CC50 at 48 h [5]: 22.6 µM; CC50 at 48 h [6]: > 100 µM; CC50 at 48 h [7]: > 100 µM; CC50 (A498): 5.5 µM; CC50 at 48 h [11]: > 100 µM; GI50 (COLO 205): 0.36 µM |
| COc1ccc2c(c1)c1nc3cc(C)c(C)cc3nc1n2CCN(C)C [JBA-094, 2-(9-methoxy-2,3-dimethyl-6H-indolo[2,3-b]quinoxalin-6-yl)-N,N-dimethylethanamine] | 5.13 | 1.11 | 5.58 | 1.66 | 23.8 | 1.23 | 1.18 | 0.973 | 1.18 | 6.9 | 0.526 | 5.89 | 1.12 | 0.273 | 4.93 | > 100 | 0.515 | 5.57 | 0.41 | 1.48 | CC50 (HL-60(TB)): > 100 µM; CC50 at 48 h [5]: 8.2 µM; CC50 at 48 h [7]: 6.09 µM; GI50 (LOX IMVI): 0.336 µM; CC50 at 48 h [12]: 6.07 µM; CC50 (A498): 5.56 µM; GI50 (COLO 205): 0.561 µM |
| Cc1cc2nc3c4cc(O)ccc4n(CCN(C)C)c3nc2cc1C [JBD-139, 6-(2-(dimethylamino)ethyl)-2,3-dimethyl-6H-indolo [2,3-b]quinoxalin-9-ol] | > 100 | 0.756 | 5.33 | 1.45 | > 100 | 0.214 | 0.356 | 0.506 | 0.671 | 5.96 | 0.356 | 5.15 | 0.378 | 1.39 | 4.18 | > 100 | 0.39 | > 100 | 0.405 | 0.948 | GI50 (LOX IMVI): 0.338 µM; CC50 (A498): 5.69 µM; CC50 at 48 h [11]: > 100 µM; GI50 (COLO 205): 0.47 µM |
| Cc1cc2nc3c4cc(N)ccc4n(CCN(C)C)c3nc2cc1C [JBD-136, 6-(2-(dimethylamino)ethyl)-2,3-dimethyl-6H-indolo [2,3-b]quinoxalin-9-amine] | 33.8 | 1.24 | 5.72 | 1.69 | 24.8 | 1.25 | 1.21 | 1.08 | 1.13 | 6.4 | 0.64 | 6.43 | 1.12 | 0.332 | 55.3 | > 100 | 0.771 | > 100 | 0.528 | 1.07 | CC50 (HL-60(TB)): 21.9 µM; CC50 at 48 h [4]: 95.2 µM; CC50 at 48 h [5]: 33 µM; CC50 at 48 h [7]: 54.2 µM; GI50 (LOX IMVI): 0.494 µM; CC50 at 48 h [12]: 21.8 µM; CC50 (A498): 5.86 µM; CC50 at 48 h [11]: 83.6 µM; GI50 (COLO 205): 0.418 µM |
| Cc1cc2nc3c4ccccc4n(CCN(C)C)c3nc2cc1C [B220, 2-(2,3-dimethyl-6H-indolo [2,3-b]quinoxalin-6-yl)-N,N-dimethylethanamine, reference compound] | 42.5 | 1.39 | 12 | 1.7 | 80.2 | 1.28 | 1.99 | 1.87 | 1.56 | 12.2 | 2.01 | 75.1 | 1.51 | 0.726 | 91.3 | > 100 | 0.673 | > 100 | 1.77 | 1.43 | CC50 (HL-60(TB)): > 100 µM; CC50 at 48 h [5]: 45.6 µM; CC50 at 48 h [7]: 44.6 µM; GI50 (LOX IMVI): 0.748 µM; CC50 at 48 h [12]: 18.9 µM; CC50 (A498): 5.74 µM; CC50 at 48 h [11]: 41 µM; GI50 (COLO 205): 1.29 µM |
